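A five-concentration, 48-hour dose response in 96-well plates underlies each endpoint, interpolated linearly between surrounding concentrations. GI50: concentration for 50% inhibition of growth. TGI: concentration producing complete growth inhibition.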
What was measured:
Experiment in all cases: NCI-60 cell line screen, 48 h
[1] = test system: TK-10 renal
[2] = test system: SK-OV-3 ovarian
[3] = test system: OVCAR-3 ovarian
[4] = test system: HCT-116 colon
[5] = test system: COLO 205 colon
[6] = test system: A498 renal
[7] = test system: NCI-H23 lung
[8] = test system: OVCAR-5 ovarian
[9] = test system: UACC-257 melanoma
[10] = test system: HOP-92 NSCLC
[11] = test system: LOX IMVI melanoma
[12] = test system: SF-539 CNS
[13] = test system: SNB-75 CNS
[14] = test system: UO-31 renal
[15] = test system: CCRF-CEM leukemia
[16] = test system: NCI-H460 lung
[17] = test system: SF-295 CNS
[18] = test system: SK-MEL-2 melanoma
[19] = test system: BT-549 breast
[20] = test system: SK-MEL-28 melanoma
[21] = test system: DU-145 prostate
[22] = test system: T-47D breast
[23] = test system: HS 578T breast
[24] = test system: ACHN renal
[25] = test system: SF-268 CNS
[26] = test system: UACC-62 melanoma
[27] = test system: RPMI-8226 leukemia
[28] = test system: HL-60(TB) leukemia
[29] = test system: SR leukemia
[30] = test system: IGROV1 ovarian
[31] = test system: HCT-15 colon
[32] = test system: HCC-2998 colon
[33] = test system: KM12 colon
[34] = test system: MDA-MB-435
[35] = test system: OVCAR-4 ovarian
[36] = test system: MOLT-4 leukemia
[37] = test system: U251 CNS
[38] = test system: NCI/ADR-RES ovarian
[39] = test system: MDA-MB-231 breast
[40] = test system: MCF7 breast
[41] = test system: HT29 colon
[42] = test system: NCI-H522 lung
[43] = test system: NCI-H226 lung
[44] = test system: MALME-3M melanoma
[45] = test system: OVCAR-8 ovarian
[46] = test system: RXF 393 renal
[47] = test system: SN12C renal
[48] = test system: SNB-19 CNS
[49] = test system: SK-MEL-5 melanoma
[50] = test system: A549 NSCLC
[51] = test system: K-562 leukemia
[52] = test system: HOP-62 NSCLC
[53] = test system: SW-620 colon
[54] = test system: 786-0 renal
[55] = test system: CAKI-1 renal
[56] = test system: EKVX NSCLC

Cn1c(I)c(C#C[Si](C)(C)C)c(=O)[nH]c1=O
GI50 [1]: 7.93 µM
TGI [1]: 22.8 µM
GI50 [2]: 17.2 µM
TGI [2]: 30.9 µM
GI50 [3]: 1.9 µM
TGI [3]: 3.39 µM
GI50 [4]: 1.89 µM
TGI [4]: 3.57 µM
GI50 [5]: 1.87 µM
TGI [5]: 3.69 µM
GI50 [6]: 16.4 µM
TGI [6]: 30.2 µM
GI50 [7]: 4.25 µM
TGI [7]: 17.3 µM
GI50 [8]: 14.7 µM
TGI [8]: 30.8 µM
GI50 [9]: 0.236 µM
TGI [9]: 3.85 µM
GI50 [10]: 1.08 µM
TGI [10]: 2.53 µM
GI50 [11]: 2.09 µM
TGI [11]: 4 µM
GI50 [12]: 9.28 µM
TGI [12]: 21.4 µM
GI50 [13]: 15.2 µM
TGI [13]: 29.3 µM
GI50 [14]: 16.8 µM
TGI [14]: 32.4 µM
GI50 [15]: 1.74 µM
TGI [15]: 3.65 µM
GI50 [16]: 19.7 µM
TGI [16]: 41.3 µM
GI50 [17]: 20 µM
TGI [17]: 45.8 µM
GI50 [18]: 14.4 µM
TGI [18]: 28.3 µM
GI50 [19]: 3 µM
TGI [19]: 9.21 µM
GI50 [20]: 1.66 µM
TGI [20]: 3.12 µM
GI50 [21]: 4.11 µM
TGI [21]: 15.1 µM
GI50 [22]: 2.54 µM
TGI [22]: 8 µM
GI50 [23]: 2.3 µM
TGI [23]: 7.08 µM
GI50 [24]: 1.61 µM
TGI [24]: 3.01 µM
GI50 [25]: 2.79 µM
TGI [25]: 8.85 µM
GI50 [26]: 6.4 µM
TGI [26]: 19.8 µM
GI50 [27]: 1.64 µM
TGI [27]: 4.28 µM
GI50 [28]: 1.9 µM
TGI [28]: 4.42 µM
GI50 [29]: 3.37 µM
TGI [29]: 5.82 µM
GI50 [30]: 1.9 µM
TGI [30]: 3.63 µM
GI50 [31]: 1.83 µM
TGI [31]: 3.64 µM
GI50 [32]: 2.32 µM
TGI [32]: 4.59 µM
GI50 [33]: 16.8 µM
TGI [33]: 32.4 µM
GI50 [34]: 3.1 µM
TGI [34]: 11.5 µM
GI50 [35]: 1.97 µM
TGI [35]: 3.59 µM
GI50 [36]: 2.54 µM
TGI [36]: 5.76 µM
GI50 [37]: 12.8 µM
TGI [37]: 25.5 µM
GI50 [38]: 20.7 µM
TGI [38]: 42.8 µM
GI50 [39]: 2.5 µM
TGI [39]: 7.25 µM
GI50 [40]: 6.2 µM
TGI [40]: 21.5 µM
GI50 [41]: 2.41 µM
TGI [41]: 5.64 µM
GI50 [42]: 1.68 µM
TGI [42]: 3.18 µM
GI50 [43]: 12.7 µM
TGI [43]: 25.3 µM
GI50 [44]: 1.96 µM
TGI [44]: 4.25 µM
GI50 [45]: 12.1 µM
TGI [45]: 25.6 µM
GI50 [46]: 0.639 µM
TGI [46]: 1.74 µM
GI50 [47]: 6.66 µM
TGI [47]: 20.5 µM
GI50 [48]: 16 µM
TGI [48]: 30.1 µM
GI50 [49]: 17.1 µM
TGI [49]: 31 µM
GI50 [50]: 21.5 µM
TGI [50]: 38.1 µM
GI50 [51]: 1.68 µM
TGI [51]: 4.08 µM
GI50 [52]: 17.6 µM
TGI [52]: 32.4 µM
GI50 [53]: 1.71 µM
TGI [53]: 3.23 µM
GI50 [54]: 16.4 µM
TGI [54]: 30.4 µM
GI50 [55]: 2.76 µM
TGI [55]: 9.58 µM
GI50 [56]: 10.9 µM
TGI [56]: 24.8 µM
